{
  "source": "patent US20240360122A1",
  "about": "“POLYMORPHIC FORMS AND SALTS OF A GLP-1R AGONIST” (Terns (Suzhou) Biotechnology Co., Ltd., priority 2023, published 2024)",
  "key": {"[1]": {"assay": "Solid state stability at 25° C./60% RH and 40° C./75% RH for 1 week", "type": "physicochemical", "conditions": "for HPLC peak Area, RRT 1.00: main peak", "description": "Each sample was added into a glass vial, sealed by parafilm with several holes, and kept under tested conditions. After one week, samples were taken for XRPD and HPLC purity test."}, "[2]": {"assay": "Hygroscopicity by DVS at 25° C.", "type": "physicochemical", "description": "DVS was measured via a SMS (Surface Measurement Systems) DVS Intrinsic. The relative humidity at 25° C. were calibrated against deliquescence point of LiCl, Mg(NO3)2 and KCl."}},
  "note": "Counter-ions that a name gives are not always drawn.",
  "data": [
    {"smiles": "N#Cc1ccc(COc2cccc(C3CCN(Cc4nc5ccc(C(=O)O)cc5n4Cc4cncs4)CC3)n2)c(F)c1", "note": "[Meglumine salt Type A]", "values": [
      {"measurement": "HPLC peak Area, RRT 0.70", "setting": "[1]; 25° C./60% RH, 1 week", "value": 0.07, "unit": "%"},
      {"measurement": "HPLC peak Area, RRT 0.73", "setting": "[1]; 25° C./60% RH, 1 week", "value": 0.14, "unit": "%"},
      {"measurement": "HPLC peak Area, RRT 0.80", "setting": "[1]; 25° C./60% RH, 1 week", "value": 0.05, "unit": "%"},
      {"measurement": "HPLC peak Area, RRT 0.83", "setting": "[1]; 25° C./60% RH, 1 week", "value": 1.93, "unit": "%"},
      {"measurement": "HPLC peak Area, RRT 0.90", "setting": "[1]; 25° C./60% RH, 1 week", "value": 0.12, "unit": "%"},
      {"measurement": "HPLC peak Area, RRT 0.99", "setting": "[1]; 25° C./60% RH, 1 week", "value": "<0.05", "unit": "%"},
      {"measurement": "HPLC peak Area, RRT 1.05", "setting": "[1]; 25° C./60% RH, 1 week", "value": 0.28, "unit": "%"},
      {"measurement": "HPLC peak Area, RRT 1.10", "setting": "[1]; 25° C./60% RH, 1 week", "value": 0.23, "unit": "%"},
      {"measurement": "HPLC peak Area, RRT 1.12", "setting": "[1]; 25° C./60% RH, 1 week", "value": "<0.05", "unit": "%"},
      {"measurement": "HPLC peak Area, RRT 1.15", "setting": "[1]; 25° C./60% RH, 1 week", "value": 0.11, "unit": "%"},
      {"measurement": "HPLC peak Area, RRT 1.34", "setting": "[1]; 25° C./60% RH, 1 week", "value": 0.08, "unit": "%"},
      {"measurement": "HPLC peak Area, RRT 1.00", "setting": "[1]; 25° C./60% RH, 1 week", "value": 96.98, "unit": "%"},
      {"measurement": "Form change", "setting": "[1]; 25° C./60% RH/Open/1 week", "value": "No"},
      {"measurement": "Purity", "setting": "[1]; 25° C./60% RH/Open/1 week", "value": 96.98, "unit": "Area %"},
      {"measurement": "solid-state stability: form change and purity decrease", "setting": "[1]; 25° C./60% RH/open and 40° C./75% RH/open, 1 week", "value": "no form change or significant purity decrease"},
      {"measurement": "HPLC peak Area, RRT 0.70", "setting": "[1]; 40° C./75% RH, 1 week", "value": 0.06, "unit": "%"},
      {"measurement": "HPLC peak Area, RRT 0.73", "setting": "[1]; 40° C./75% RH, 1 week", "value": 0.15, "unit": "%"},
      {"measurement": "HPLC peak Area, RRT 0.80", "setting": "[1]; 40° C./75% RH, 1 week", "value": 0.05, "unit": "%"},
      {"measurement": "HPLC peak Area, RRT 0.83", "setting": "[1]; 40° C./75% RH, 1 week", "value": 1.96, "unit": "%"},
      {"measurement": "HPLC peak Area, RRT 0.90", "setting": "[1]; 40° C./75% RH, 1 week", "value": 0.11, "unit": "%"},
      {"measurement": "HPLC peak Area, RRT 0.99", "setting": "[1]; 40° C./75% RH, 1 week", "value": "<0.05", "unit": "%"},
      {"measurement": "HPLC peak Area, RRT 1.05", "setting": "[1]; 40° C./75% RH, 1 week", "value": 0.28, "unit": "%"},
      {"measurement": "HPLC peak Area, RRT 1.10", "setting": "[1]; 40° C./75% RH, 1 week", "value": 0.34, "unit": "%"},
      {"measurement": "HPLC peak Area, RRT 1.12", "setting": "[1]; 40° C./75% RH, 1 week", "value": "<0.05", "unit": "%"},
      {"measurement": "HPLC peak Area, RRT 1.15", "setting": "[1]; 40° C./75% RH, 1 week", "value": 0.13, "unit": "%"},
      {"measurement": "HPLC peak Area, RRT 1.34", "setting": "[1]; 40° C./75% RH, 1 week", "value": 0.05, "unit": "%"},
      {"measurement": "HPLC peak Area, RRT 1.00", "setting": "[1]; 40° C./75% RH, 1 week", "value": 96.88, "unit": "%"},
      {"measurement": "Form change", "setting": "[1]; 40° C./75% RH/Open/1 week", "value": "No"},
      {"measurement": "Purity", "setting": "[1]; 40° C./75% RH/Open/1 week", "value": 96.88, "unit": "Area %"},
      {"measurement": "HPLC peak Area, RRT 0.70", "setting": "[1]; Initial", "value": 0.07, "unit": "%"},
      {"measurement": "HPLC peak Area, RRT 0.73", "setting": "[1]; Initial", "value": 0.13, "unit": "%"},
      {"measurement": "HPLC peak Area, RRT 0.80", "setting": "[1]; Initial", "value": 0.05, "unit": "%"},
      {"measurement": "HPLC peak Area, RRT 0.83", "setting": "[1]; Initial", "value": 1.95, "unit": "%"},
      {"measurement": "HPLC peak Area, RRT 0.90", "setting": "[1]; Initial", "value": 0.12, "unit": "%"},
      {"measurement": "HPLC peak Area, RRT 0.99", "setting": "[1]; Initial", "value": 0.11, "unit": "%"},
      {"measurement": "HPLC peak Area, RRT 1.05", "setting": "[1]; Initial", "value": 0.28, "unit": "%"},
      {"measurement": "HPLC peak Area, RRT 1.10", "setting": "[1]; Initial", "value": 0.24, "unit": "%"},
      {"measurement": "HPLC peak Area, RRT 1.12", "setting": "[1]; Initial", "value": 0.05, "unit": "%"},
      {"measurement": "HPLC peak Area, RRT 1.15", "setting": "[1]; Initial", "value": 0.11, "unit": "%"},
      {"measurement": "HPLC peak Area, RRT 1.34", "setting": "[1]; Initial", "value": 0.16, "unit": "%"},
      {"measurement": "Purity", "setting": "[1]; Initial", "value": 96.73, "unit": "Area %"},
      {"measurement": "HPLC peak Area, RRT 1.00", "setting": "[1]; Initial", "value": 96.73, "unit": "%"},
      {"measurement": "water uptake (DVS)", "setting": "[2]; 25° C./80% RH", "value": 1.43, "unit": "%"},
      {"measurement": "hygroscopicity", "setting": "[2]; DVS, 25° C.", "value": "slightly hygroscopic"},
      {"measurement": "Water uptake at 25° C./80% RH", "setting": "[2]; DVS, 25° C./80% RH", "value": 1.43, "unit": "wt %"},
      {"measurement": "For change after DVS", "setting": "[2]; XRPD after DVS test", "value": "No"},
      {"measurement": "form change after DVS test (XRPD)", "setting": "[2]; after DVS test", "value": "no form change"}
    ]}
  ]
}
